Test results from patent publication EP4813463A2, “TYK2 INHIBITORS AND COMPOSITIONS AND METHODS THEREOF” (Lynk Pharmaceuticals Co. Ltd., priority 2023, dated 2024).
Read-outs that look alike come from different tables or passages of the source.

Legend:
[1] = system: Ba/F3-FL-TYK2-P760L cells; assay: Anti-proliferative assay in engineered Ba/F3 cells (Cell-Titer Glo, 72 h); type: cell-based; conditions: 72 h compound treatment, concentration that causes 50% growth inhibition, read-out: Baf3-FL-T2P760L
Method: Dimerization domain of Tel protein fused with JAK kinase domain was permanently transduced into Ba/F3 cells, whose proliferation is dependent on JAK activity in the absence of IL-3 induction. These engineered Ba/F3-FL-TYK2-P760L cells were used to monitor JAK inhibitory activities of the compounds in the cellular. Ba/F3 cells were cultured in RPMI-1640 (Corning) containing 10% fetal bovine serum. Cells were seeded at 2000/well of white flat bottom 96-well plates. The well containing medium only was used as background control. After 24h growth, cells were treated with compounds. The test compounds were dissolved in DMSO to a stock concentration of 20 mM. 3-fold serially diluted compounds for 9 concentrations with top concentration of 20 µM was added into the each well. The final DMSO concentration was 0.1%. The cells continued to grow at 37°C in 5% CO2 for 72 h after compound treatment. The viability was measured by cellular ATP determination using the Cell-Titer Glo luciferase reagent (Promega). The Luminescence value was recorded by a multi-label reader Envision (PerkinElmer). Inhibition Rate was calculated relative to vehicle (DMSO) treated control wells using following formula: % Inhibition = 100−(RLU_compound−RLU_blank)/(RLU_control−RLU_blank) × 100% [formula] wherein • RLU_compound = the relative light unit of cells treated with test compounds • RLU_blank = the relative light unit of medium with DMSO only • RLU_control = the relative light unit of cells treated with DMSO only
Table 4. Ba/F3-FL-TYK2-P760L Cells IC50 Values of Exemplary Compounds

TYK2-JH2 domain = molecular target: T1, TYK2-JH2 domain (Homo sapiens, UniProt P29597); assay: Binding activity test for JH2 domain of TYK2 (Tb-antibody/tracer FRET); conditions: JH2 domain enzyme; 60 min at 25°C, then 4°C overnight; read-out: TYK2 JH2 Binding IC50
T1 construct: JAK1-JH2 domain or TYK2-JH2 domain enzyme in assay buffer
Method: Binding Activity test for JH2 domain of JAK1 and TYK2 […] Add 8μL/well in echo source plate, echo will add 75nL/well with 3-fold serial dilution for 11 points in assay plate. 75nL DMSO for high control and low control. […] For low control, add 5μL/well assay buffer. And then spin down at 1000rpm and centrifuge for 30 seconds. After enzyme system prepared, add 5μL of Tb-antibody solution into each well of assay plate. Spin down at 1000 rpm and centrifuge for 30sec. After Tb-antibody added, also add 5μL of tracer into the assay plate. Spin down at 1000rpm and centrifuge for 30sec. Incubate for […] at 25°C firstly and then continue to incubate the plate at 4°C overnight. Read by envision in FRET mode. The Luminescence value was recorded by a multi-label reader Envision (PerkinElmer). […] Table 2. IC50 on JH2 domain activity (nM)

T1 sequence (P29597 589-875 limits assumed): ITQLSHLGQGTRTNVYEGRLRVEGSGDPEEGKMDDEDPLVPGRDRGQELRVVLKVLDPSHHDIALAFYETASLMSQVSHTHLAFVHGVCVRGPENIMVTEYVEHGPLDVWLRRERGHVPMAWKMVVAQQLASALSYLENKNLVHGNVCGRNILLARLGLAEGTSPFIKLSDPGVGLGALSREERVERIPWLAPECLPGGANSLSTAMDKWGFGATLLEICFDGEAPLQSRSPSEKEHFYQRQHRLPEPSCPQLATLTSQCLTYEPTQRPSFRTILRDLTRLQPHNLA

IC50 [1] [nM]	IC50 (TYK2-JH2 domain) [nM]	IC50 ([1]; Mus musculus, BaF3, 72 h) [nM]	SMILES
	0.119	9.83	COC(=O)c1cnc(NC(=O)C2CC2)cc1Nc1nn(C)c2ccc(C(OC)C(C)(F)F)c(OC)c12 (single isomer, unassigned) [Example 115A, Methyl (S*)-6-(cyclopropanecarboxamido)-4-((5-(2,2-difluoro-1-methoxypropyl)-4-methoxy-1-methyl-1H-indazol-3-yl)amino)nicotinate]
2.51	0.095		[2H]C([2H])([2H])OC(c1ccc2c(c(Nc3cc(NC(=O)C4CC4)ncc3C(=O)OC)nn2CCOC)c1OC)C(F)(F)F (single isomer, unassigned) [Example 157A, Methyl (S*)-6-(cyclopropanecarboxamido)-4-((4-methoxy-1-(2-methoxyethyl)-5-(2,2,2-trifluoro-1-methoxyethyl)-1H-indazol-3-yl)amino)nicotinate]
45	1.18		CCC(F)(F)c1cnc(NC(=O)C2CC2)cc1Nc1nn(C)c2ccc(C(O)C(F)(F)F)c(OC)c12 (single isomer, unassigned) [Example 193B, (R*)-N-(5-(1,1-Difluoropropyl)-4-((4-methoxy-1-methyl-5-(2,2,2-trifluoro-1-hydroxyethyl)-1H-indazol-3-yl)amino)pyridin-2-yl)cyclopropanecarboxamide]
	0.18	11.2	[2H]C([2H])([2H])NC(=O)c1cnc(NC(=O)C2CC2)cc1Nc1nn(C)c2ccc([C@@H](OC)C(F)(F)F)c(OC)c12 [Example 46B, (R)-6-(cyclopropanecarboxamido)-4-((4-methoxy-1-methyl-5-(2,2,2-trifluoro-1-methoxyethyl)-1H-indazol-3-yl)amino)-N-(methyl-d3)nicotinamide]
	0.089	2.71	[2H]C([2H])([2H])Oc1c([C@H](OC)C(F)(F)F)ccc2c1c(Nc1cc(NC(=O)C3CC3)ncc1C(=O)OC)nn2C [Example 120A, Methyl (S)-6-(cyclopropanecarboxamido)-4-((4-(methoxy-d3)-1-methyl-5-(2,2,2-trifluoro-1-methoxyethyl)-1H-indazol-3-yl)amino)nicotinate]

The next lines start with the compound.

SMILES	IC50 [1] [nM]	IC50 (TYK2-JH2 domain) [nM]	IC50 ([1]; Mus musculus, BaF3, 72 h) [nM]
[2H]C([2H])([2H])NC(=O)c1cnc(NC(=O)C2CC2)cc1Nc1nn(CC)c2ccc(C(O)C(F)(F)F)c(OC)c12 (single isomer, unassigned) [Example 71B, (R*)-6-(cyclopropanecarboxamido)-4-((1-ethyl-4-methoxy-5-(2,2,2-trifluoro-1-hydroxyethyl)-1H-indazol-3-yl)amino)-N-(methyl-d3)nicotinamide]	17.9	0.25	
COC(=O)c1cnc(NC(=O)C2CC2)cc1Nc1cccc(-c2cnn(C)n2)c1OC [Example 63, Methyl 6-(cyclopropanecarboxamido)-4-((2-methoxy-3-(2-methyl-2H-1,2,3-triazol-4-yl)phenyl)amino)nicotinate]		0.285	48.4
[2H]C([2H])([2H])NC(=O)c1cnc(NC(=O)C2CC2)cc1Nc1csc2ccc(C(OC)C(F)(F)F)c(OC)c12 (centres unmarked) [Example 72, 6-(Cyclopropanecarboxamido)-4-((4-methoxy-5-(2,2,2-trifluoro-1-methoxyethyl)benzo[b]thiophen-3-yl)amino)-N-(methyl-d3)nicotinamide]		0.14	2.65
CONC(=O)c1cnc(NC(=O)C2CC2)cc1Nc1nn(C)c2ccc(C(OC)C(F)(F)F)c(OC)c12 (centres unmarked) [Example 73, 6-(Cyclopropanecarboxamido)-N-methoxy-4-((4-methoxy-1-methyl-5-(2,2,2-trifluoro-1-methoxyethyl)-1H-indazol-3-yl)amino)nicotinamide]		0.14	7.56
COC(=O)c1cnc(NC(=O)C2CC2)cc1Nc1nn(C)c2ccc(C(OC)C3(F)CC3)c(OC)c12 (centres unmarked) [Example 74, Methyl 6-(cyclopropanecarboxamido)-4-((5-((1-fluorocyclopropyl) (methoxy)methyl)-4-methoxy-1-methyl-1H-indazol-3-yl)amino)nicotinate]		0.18	30.7
COC(=O)c1cnc(NC(=O)[C@@H]2C[C@@H]2F)cc1Nc1nn(C)c2ccc([C@H](OC)C(F)(F)F)c(OC)c12 [Example 76, Methyl 6-((1S,2S)-2-fluorocyclopropane-1-carboxamido)-4-((4-methoxy-1-methyl-5-((S)-2,2,2-trifluoro-1-methoxyethyl)-1H-indazol-3-yl)amino)nicotinate]		0.09	3.49
COCCn1nc(Nc2cc(NC(=O)C3CC3)ncc2C(=O)OC)c2c(OC)c(C(OC)C(F)(F)F)ccc21 (centres unmarked) [Example 78, Methyl 6-(cyclopropanecarboxamido)-4-((4-methoxy-1-(2-methoxyethyl)-5-(2,2,2-trifluoro-1-methoxyethyl)-1H-indazol-3-yl)amino)nicotinate]		0.17	5.26
COC(=O)c1cnc(NC(=O)C2CC2)cc1Nc1csc2ccc(C(OC)C(F)(F)F)c(OC)c12 (centres unmarked) [Example 111, Methyl 6-(cyclopropanecarboxamido)-4-((4-methoxy-5-(2,2,2-trifluoro-1-methoxyethyl)benzo[b]thiophen-3-yl)amino)nicotinate]		0.364	19
COC(=O)c1cnc(NC(=O)C2CC2)cc1Nc1nn(C)c2ccc(C(C)OC)c(OC)c12 (centres unmarked) [Example 112, Methyl 6-(cyclopropanecarboxamido)-4-((4-methoxy-5-(1-methoxyethyl)-1-methyl-1H-indazol-3-yl)amino)nicotinate]		0.162	11.4
COC(=O)c1cnc(NC(=O)C2CC2)cc1Nc1nn(C)c2ccc(C(OC)C3CC3)c(OC)c12 (centres unmarked) [Example 114, Methyl 6-(cyclopropanecarboxamido)-4-((5-(cyclopropyl(methoxy)methyl)-4-methoxy-1-methyl-1H-indazol-3-yl)amino)nicotinate]		0.209	21.9
COC(=O)c1cnc(NC(=O)C2CC2)cc1Nc1nn(C)c2ccc(C(OC)C(C)(F)F)c(OC)c12 (centres unmarked) [Example 115, Methyl 6-(cyclopropanecarboxamido)-4-((5-(2,2-difluoro-1-methoxypropyl)-4-methoxy-1-methyl-1H-indazol-3-yl)amino)nicotinate]		0.182	5.58
COC(=O)c1cnc(NC(=O)[C@@H]2C[C@@H]2F)cc1Nc1nn(C)c2ccc(C(OC)C(C)(F)F)c(OC)c12 (stereo partly drawn) [Example 116, Methyl 4-((5-(2,2-difluoro-1-methoxypropyl)-4-methoxy-1-methyl-1H-indazol-3-yl)amino)-6-((1S,2S)-2-fluorocyclopropane-1-carboxamido)nicotinate]		0.188	4.65
COC(=O)c1cnc(NC(=O)C2CC2)cc1Nc1nn(C)c2ccc(C(OC)C(F)(F)F)c(O)c12 (centres unmarked) [Example 149, Methyl 6-(cyclopropanecarboxamido)-4-((4-hydroxy-1-methyl-5-(2,2,2-trifluoro-1-methoxyethyl)-1H-indazol-3-yl)amino)nicotinate]		0.747	
[2H]C([2H])([2H])CC(=O)c1cnc(NC(=O)C2CC2)cc1Nc1ncc2cnn(CC(C)(F)F)c2c1OC [Example 155, N-(4-((1-(2,2-difluoropropyl)-7-methoxy-1H-pyrazolo[4,3-c]pyridin-6-yl)amino)-5-(propanoyl-3,3,3-d3)pyridin-2-yl)cyclopropanecarboxamide]		0.891	
COC(=O)c1cnc(NC(=O)C2CC2)cc1Nc1nn(C)c2ccc([C@H](OCOP(=O)(O)O)C(F)(F)F)c(OC)c12 [Example 170, Sodium (S)-(1-(3-((2-(cyclopropanecarboxamido)-5-(methoxycarbonyl)pyridin-4-yl)amino)-4-methoxy-1-methyl-1H-indazol-5-yl)-2,2,2-trifluoroethoxy)methyl phosphate]		0.074	
CCC(F)(F)c1cnc(NC(=O)C2CC2)cc1Nc1nc2ccc(N3CC(OC)C3)cn2n1 [Example 183, N-(5-(1,1-Difluoropropyl)-4-((6-(3-methoxyazetidin-1-yl)-[1,2,4]triazolo[1,5-a]pyridin-2-yl)amino)pyridin-2-yl)cyclopropanecarboxamide]			14.5
